Assay results reported in US10550166B2, “Immunogenic peptides of the cyclin B1 tumor antigen” (Commissariat a l'Energie Atomique et aux Energies …, priority 2013, dated 2020).

What was measured:
[1] = test system: class II HLA molecules; assay: number of class II HLA molecules bound out of the 12 tested; assay type: binding, human
[2] = test system: CD4+ T lymphocytes; assay: induction of peptide-specific CD4+ T lymphocyte lines with peptide-loaded dendritic cells, Elispot; assay type: cell-based, human; details: for Average strength (%): CD4+ T response, 13 healthy donors; for frequency: frequency of responders among 13 donors; for responders: number of responding donors out of 13; for Number of specific responses, total: total over 13 healthy donors
Text: The blood samples (buffy coat) come from the Etablissement Francais du Sang [French blood bank] (Rungis center). The peripheral blood mononuclear cells (PBMCs) were isolated by means of a ficoll gradient. The immature dendritic cells (DCs) were obtained from the PBMCs by differentiation of the adherent cells after 5 days of culture in AIM-V medium (Life Technologies) containing 1000 U/ml of IL-4 and 1000 U/ml of GM-CSF (R&D Systems). The mature DCs were obtained from the immature DCs after having been cultured for two days in the presence of lipopolysaccharide (LPS). The CD4^+ T lymphocytes were purified from the PBMCs using magnetic microbeads coupled to anti-CD4 antibodies (Miltenyi Biotec). The HLA-DRB1 genotyping of the donors was carried out by sequence-specific PCR using the All Set^+™ Gold SSP HLA-DRB1 kit (Invitrogen).
The CD4^+ T lymphocytes (1 to 3×10^5) were cultured in round-bottomed 96-well plates with autologous immature DCs preloaded with 1.2 μM of CCNB1 and matured in the presence of LPS, or with autologous mature DCs preloaded with pools of peptides (10 μg/ml). The culturing is carried out in IMDM medium (Life Technologies) supplemented with human serum of group AB (complete IMDM medium) containing 1000 U/ml of IL-6 (R&D Systems) and 10 ng/ml of IL-12 (R&D Systems). The culture is stimulated at the end of one week by adding 10 000 to 30 000 DCs loaded with the CCNB1 protein or the pools of peptides, 20 U/ml of IL-2 (R&D Systems) and 10 ng/ml of IL-7 (R&D Systems). Another stimulation is carried out after 14 and optionally 21 days of culture. Between 5 and 7 days after the final stimulation, a specificity test is carried out by EliSpot. Each culture well constitutes a CD4^+ T lymphocyte line.
The anti-human IFN-γ antibody 1-D1K (Mabtech) is adsorbed at 2.5 μg/ml in 1×PBS onto 96-well Multiscreen®-HA plates (Millipore) by overnight incubation at 4° C. The plates are then saturated by incubation for 2 hours at 37° C. with complete IMDM medium. The CD4^+ T lymphocytes are incubated for 16 hours at 37° C. in these plates after having been washed in AIM-V/IL-7 medium (0.5 ng/ml of IL-7). The autologous immature DCs (5000 cells/well) preloaded for 4 hours with the CCNB1 protein or KLH (0.5 to 3 μM) or PBMCs (50 000 cells/well) incubated in the presence of 10 μg/ml of peptides are used as presenting cells. After incubation, the plates are washed with distilled water, PBS/0.05% Tween and PBS. 100 μl/well of biotinylated anti-human IFN-γ Ab 7-B6-1 (Mabtech) at 0.25 μg/ml in 1×PBS/1% BSA is added to the plates, which are incubated for 1 h 30 min at 37° C. […] After 5 to 10 minutes of incubation, the reaction is stopped by washing with running water. After drying, the spots are counted on an Elispot reader (AID). A CD4^+ T lymphocyte line is considered to be antigen-specific if the number of spots in the wells containing the antigen is at least two times higher than the well not containing the antigen, the difference between the 2 types of well being at least greater than 25. The frequency of the CD4^+ T lymphocytes present in the donor blood is estimated using the Poisson's law distribution according to the formula: frequency=−Ln ((number of nonspecific lines/total number of lines tested))/(number of CD4^+ lymphocytes incubated in each well).
13 healthy donors comprising HLA molecules which are varied and most of which are very frequent in the Caucasian population were selected (Table IX).
CD4^+ T lymphocyte lines were obtained by coculture of the CD4^+ T lymphocytes with autologous dendritic cells preloaded with pools of peptides. After amplification of the T lymphocytes, each line was tested by Elispot (Table IX). The results are reported in the form of the number of times when a response to a peptide is observed. All the peptides induce a T lymphocyte response, but the strength of the response and the number of responders are very variable. 9 peptides activate T lymphocytes in more than half the donors.

[3] = molecular target: T1, HLA-DRB4 (DRB4*01:01) (Homo sapiens, UniProt P01903+P13762, G164S); assay: competitive binding assay to purified class II HLA molecule, ELISA read-out
T1 construct: Lymphoblastoid cells transformed with the EBV virus, homozygous for class II HLA molecules, are used as a source of class II HLA molecules; endogenous in cells; host or cells: EBV-transformed lymphoblastoid cells homozygous for class II HLA

[4] = Donor 14, HLA-DRB1 typing 07:01/13:01
[5] = Donor 22, HLA-DRB1 typing 01:01/09:01
[6] = Donor 30, HLA-DRB1 typing 07:01/11:01
[7] = Donor 31, HLA-DRB1 typing 13:01/16:01
[8] = Donor 56, HLA-DRB1 typing 07:01/11:01
[9] = Donor 996, HLA-DRB1 typing 08:04/14:08
[10] = Donor 876, HLA-DRB1 typing 11:01/11:04
[11] = Donor 32, HLA-DRB1 typing 03:01
[12] = Donor 26, HLA-DRB1 typing 11:04/15:01
[13] = Donor 877, HLA-DRB1 typing 01:01/13:01

Compound	Number HLA II [1]	Average strength (%) [2]	frequency [2]	responders [2]	Number of specific responses, total [2]	other results
EQLQAKMPMKKEAKP [Peptide 54-68]	1	–	–	–	–	–
HTLAKYLMELTMLDY (H-HTLAKYLMELTMLDY-NH2) [Peptide 320-334]	12	–	–	–	–	–
QAFSDVILAVNDVDA [Peptide 144-158]	5	–	–	–	–	–
QHYLSYTEESLLPVM [Peptide 366-380]	8	–	–	–	–	–
KKMLQLVGVTAMFIA [Peptide 241-255]	8	–	–	–	–	–
REVTGNMRAILIDWL [Peptide 195-209]	5	–	–	–	–	–
PQLNSALVQDLAKAVAKV (H-PQLNSALVQDLAKAVAKV-NH2) [Peptide 416-433]	–	6.1%	77%	10	39	Number of specific responses [2, 4]: 13; Number of specific responses [2, 5]: 2; Number of specific responses ([2]; Donor 23, HLA-DRB1 typing 04:01/13:01): 5; Number of specific responses [2, 6]: 2; Number of specific responses [2, 7]: 5; Number of specific responses [2, 8]: 5; Number of specific responses [2, 9]: 2
NCVPKKMLQLVGVTA [Peptide 237-251]	3	–	–	–	–	–
ETMYMTVSIIDRFMQ (H-ETMYMTVSIIDRFMQ-NH2) [Peptide 221-235]	12	1.5%	54%	–	10	Number of specific responses [2, 4]: 2; Number of specific responses [2, 5]: 3
RPLPLHFLRRASKIG [Peptide 299-313]	6	–	–	–	–	–
QGLTKHMTVKNKYAT [Peptide 392-406]	2	–	–	–	–	–
CC[C@H](C)[C@H](NC(=O)[C@@H](NC(=O)[C@H](C)NC(=O)[C@H](CCCCN)NC(=O)[C@H](CC(=O)O)NC(=O)[C@@H](NC(=O)[C@H](CCC(=O)O)NC(=O)[C@@H](NC(=O)[C@H](C)NC(=O)[C@H](CC(C)C)NC(=O)[C@H](CC(C)C)NC(=O)[C@H](CC(=O)O)NC(=O)CNC(=O)[C@H](C)N)[C@@H](C)CC)[C@@H](C)O)[C@@H](C)O)C(N)=O [E2/E168, reference compound]	–	–	–	–	–	IC50 [3]: 10 nM
HTLAKYLMELTMLDYDMV (H-HTLAKYLMELTMLDYDMV-NH2) [Peptide 320-337]	–	–	38%	5	–	–
MELTMLDYDMVHFPP [Peptide 327-341]	5	–	–	–	–	–
PTLQHYLSYTEESLLPVM (H-PTLQHYLSYTEESLLPVM-NH2) [Peptide 363-380]	–	1.1%	38%	–	7	Number of specific responses [2, 4]: 2; Number of specific responses [2, 10]: 2
GNMRAILIDWLVQVQMKF (H-GNMRAILIDWLVQVQMKF-NH2) [Peptide 199-216]	–	1.2%	38%	5	8	Number of specific responses [2, 8]: 3
RPLPLHFLRRASKIGEVDV (H-RPLPLHFLRRASKIGEVDV-NH2) [Peptide 299-317]	–	5.0%	77%	10	33	Number of specific responses [2, 5]: 8; Number of specific responses [2, 7]: 6; Number of specific responses [2, 11]: 2; Number of specific responses [2, 8]: 6; Number of specific responses [2, 10]: 4
KPLEKVPMLVPVPVS [Peptide 81-95]	0	–	–	–	–	–
VQMKFRLLQETMYMT (H-VQMKFRLLQETMYMT-NH2) [Peptide 212-226]	10	0.8%	23%	3	–	Number of specific responses ([2]; Donor 62, HLA-DRB1 typing 01:01/04:05): 3
SEYVKDIYAYLRQLE (synthetic peptide CCNB1 168-182) [Peptide 168-182]	7	2.0%	62%	8	13	Number of specific responses [2, 4]: 1; Number of specific responses [2, 5]: 2; Number of specific responses [2, 12]: 1; Number of specific responses [2, 6]: 1; Number of specific responses [2, 7]: 4; Number of specific responses [2, 8]: 1; Number of specific responses [2, 13]: 1; Number of specific responses [2, 9]: 2
KKMLQLVGVTAMFIASKY (H-KKMLQLVGVTAMFIASKY-NH2) [Peptide 241-258]	–	2.3%	54%	7	–	Number of specific responses [2, 13]: 4
KHMTVKNKYATSKHA [Peptide 396-410]	2	–	–	–	–	–
SQIAAGAFCLALKIL (synthetic peptide CCNB1 342-356) [Peptide 342-356]	7	0.8%	31%	4	5	Number of specific responses [2, 4]: 1; Number of specific responses [2, 6]: 1; Number of specific responses [2, 11]: 1; Number of specific responses [2, 8]: 2
NTYTKHQIRQMEMKI [Peptide 275-289]	5	–	–	–	–	–
HQIRQMEMKILRALNFGLGR (H-HQIRQMEMKILRALNFGLGR-NH2) [Peptide 280-299]	–	3.5%	85%	11	23	Number of specific responses [2, 5]: 3; Number of specific responses [2, 12]: 3; Number of specific responses [2, 7]: 3
